In patent US11986493B2 (University of Pittsburgh—Of the Commonwealth System of …, priority 2013, dated 2024):

System: subjects with pulmonary hypertension
Assay: Systemic blood pressure (noninvasive) and heart rate monitoring during the study
Experimental: During the study right heart/pulmonary artery hemodynamics were measured as well as noninvasive systemic blood pressure monitoring and simultaneous RV echocardiography. Subjects were tested for the changes in pulmonary vascular resistance (PVR) measured by right heart catheterization and using thermodilution cardiac output measurement at time zero, at times 15, 30 and 45 minutes after completion of each nebulization dose.
Subjects were monitored closely for changes in blood pressure during the study. […] Subjects were continued to be monitored closely every 10 minutes for 2 hours.

[1] = Patient 1, nitrite 45 mg inhaled, 15 min
[2] = Patient 1, nitrite 45 mg inhaled, 30 min
[3] = Patient 1, nitrite 45 mg inhaled, 45 min
[4] = Patient 1, nitrite 45 mg inhaled, 60 min
[5] = Patient 1, nitrite 90 mg inhaled, 15 min
[6] = Patient 1, nitrite 90 mg inhaled, 30 min
[7] = Patient 1, nitrite 90 mg inhaled, 45 min
[8] = Patient 1, nitrite 90 mg inhaled, 60 min
[9] = Patient 2, nitrite 45 mg inhaled, 15 min
[10] = Patient 2, nitrite 45 mg inhaled, 30 min
[11] = Patient 2, nitrite 45 mg inhaled, 45 min
[12] = Patient 2, nitrite 45 mg inhaled, 60 min
[13] = Patient 2, nitrite 90 mg inhaled, 15 min
[14] = Patient 2, nitrite 90 mg inhaled, 30 min
[15] = Patient 2, nitrite 90 mg inhaled, 45 min
[16] = Patient 2, nitrite 90 mg inhaled, 60 min
[17] = Patient 3, nitrite 45 mg inhaled, 15 min
[18] = Patient 3, nitrite 45 mg inhaled, 30 min
[19] = Patient 3, nitrite 45 mg inhaled, 45 min
[20] = Patient 3, nitrite 45 mg inhaled, 60 min
[21] = Patient 3, nitrite 90 mg inhaled, 15 min
[22] = Patient 3, nitrite 90 mg inhaled, 30 min
[23] = Patient 3, nitrite 90 mg inhaled, 45 min
[24] = Patient 3, nitrite 90 mg inhaled, 60 min
[25] = Patient 4, nitrite 45 mg inhaled, 15 min
[26] = Patient 4, nitrite 45 mg inhaled, 30 min
[27] = Patient 4, nitrite 45 mg inhaled, 45 min
[28] = Patient 4, nitrite 45 mg inhaled, 60 min
[29] = Patient 4, nitrite 90 mg inhaled, 15 min
[30] = Patient 4, nitrite 90 mg inhaled, 30 min
[31] = Patient 4, nitrite 90 mg inhaled, 45 min
[32] = Patient 4, nitrite 90 mg inhaled, 60 min
[33] = Patient 5, nitrite 45 mg inhaled, 15 min
[34] = Patient 5, nitrite 45 mg inhaled, 30 min
[35] = Patient 5, nitrite 45 mg inhaled, 45 min
[36] = Patient 5, nitrite 45 mg inhaled, 60 min
[37] = Patient 5, nitrite 90 mg inhaled, 15 min
[38] = Patient 5, nitrite 90 mg inhaled, 30 min
[39] = Patient 5, nitrite 90 mg inhaled, 45 min
[40] = Patient 5, nitrite 90 mg inhaled, 60 min
[41] = at the doses tested (45 mg and 90 mg inhaled)

O=NO [nitrite, sodium nitrite]
HR [1]: 81 | Systemic DBP [1]: 71 | Systemic SBP [1]: 109 | Systemic mBP [1]: 83.68 | HR [2]: 83 | Systemic DBP [2]: 78 | Systemic SBP [2]: 108 | Systemic mBP [2]: 88.01 | HR [3]: 82 | Systemic DBP [3]: 72 | Systemic SBP [3]: 109 | Systemic mBP [3]: 84.34 | HR [4]: 88 | Systemic DBP [4]: 78 | Systemic SBP [4]: 108 | Systemic mBP [4]: 88.01 | HR [5]: 93 | Systemic DBP [5]: 67 | Systemic SBP [5]: 97 | Systemic mBP [5]: 77.01 | HR [6]: 93 | Systemic DBP [6]: 66 | Systemic SBP [6]: 102 | Systemic mBP [6]: 78.01 | HR [7]: 94 | Systemic DBP [7]: 62 | Systemic SBP [7]: 102 | Systemic mBP [7]: 75.34 | HR [8]: 92 | Systemic DBP [8]: 67 | Systemic SBP [8]: 105 | Systemic mBP [8]: 79.68 | HR [9]: 74 | Systemic DBP [9]: 82 | Systemic SBP [9]: 136 | Systemic mBP [9]: 100.01 | HR [10]: 73 | Systemic DBP [10]: 75 | Systemic SBP [10]: 137 | Systemic mBP [10]: 95.68 | HR [11]: 75 | Systemic DBP [11]: 75 | Systemic SBP [11]: 137 | Systemic mBP [11]: 95.68 | HR [12]: 77 | Systemic DBP [12]: 68 | Systemic SBP [12]: 132 | Systemic mBP [12]: 89.34 | HR [13]: 74 | Systemic DBP [13]: 76 | Systemic SBP [13]: 142 | Systemic mBP [13]: 98.01 | HR [14]: 74 | Systemic DBP [14]: 77 | Systemic SBP [14]: 132 | Systemic mBP [14]: 95.34 | HR [15]: 76 | Systemic DBP [15]: 81 | Systemic SBP [15]: 141 | Systemic mBP [15]: 101.01 | HR [16]: 77 | Systemic DBP [16]: 78 | Systemic SBP [16]: 143 | Systemic mBP [16]: 99.68 | HR [17]: 63 | Systemic DBP [17]: 55 | Systemic SBP [17]: 96 | Systemic mBP [17]: 68.67 | HR [18]: 51 | Systemic DBP [18]: 56 | Systemic SBP [18]: 95 | Systemic mBP [18]: 69.01 | HR [19]: 67 | Systemic DBP [19]: 59 | Systemic SBP [19]: 92 | Systemic mBP [19]: 70.01 | HR [20]: 63 | Systemic DBP [20]: 52 | Systemic SBP [20]: 106 | Systemic mBP [20]: 70.01 | HR [21]: 68 | Systemic DBP [21]: 54 | Systemic SBP [21]: 100 | Systemic mBP [21]: 69.34 | HR [22]: 71 | Systemic DBP [22]: 58 | Systemic SBP [22]: 102 | Systemic mBP [22]: 72.68 | HR [23]: 70 | Systemic DBP [23]: 54 | Systemic SBP [23]: 100 | Systemic mBP [23]: 69.34 | HR [24]: 72 | Systemic DBP [24]: 59 | Systemic SBP [24]: 103 | Systemic mBP [24]: 73.68 | HR [25]: 72 | Systemic DBP [25]: 73 | Systemic SBP [25]: 137 | Systemic mBP [25]: 94.34 | HR [26]: 69 | Systemic DBP [26]: 77 | Systemic SBP [26]: 134 | Systemic mBP [26]: 96.01 | HR [27]: 72 | Systemic DBP [27]: 71 | Systemic SBP [27]: 134 | Systemic mBP [27]: 92.01 | HR [28]: 71 | Systemic DBP [28]: 71 | Systemic SBP [28]: 131 | Systemic mBP [28]: 91.01 | HR [29]: 61 | Systemic DBP [29]: 64 | Systemic SBP [29]: 120 | Systemic mBP [29]: 82.68 | HR [30]: 70 | Systemic DBP [30]: 68 | Systemic SBP [30]: 126 | Systemic mBP [30]: 87.34 | HR [31]: 63 | Systemic DBP [31]: 63 | Systemic SBP [31]: 121 | Systemic mBP [31]: 82.34 | HR [32]: 63 | Systemic DBP [32]: 66 | Systemic SBP [32]: 129 | Systemic mBP [32]: 87.01 | HR [33]: 58 | Systemic DBP [33]: 49 | Systemic SBP [33]: 91 | Systemic mBP [33]: 63.01 | HR [34]: 53 | Systemic DBP [34]: 52 | Systemic SBP [34]: 95 | Systemic mBP [34]: 66.34 | HR [35]: 65 | Systemic DBP [35]: 52 | Systemic SBP [35]: 98 | Systemic mBP [35]: 67.34 | HR [36]: 62 | Systemic DBP [36]: 45 | Systemic SBP [36]: 95 | Systemic mBP [36]: 61.67 | HR [37]: 59 | Systemic DBP [37]: 53 | Systemic SBP [37]: 100 | Systemic mBP [37]: 68.68 | HR [38]: 61 | Systemic DBP [38]: 49 | Systemic SBP [38]: 102 | Systemic mBP [38]: 66.68 | HR [39]: 65 | Systemic DBP [39]: 47 | Systemic SBP [39]: 94 | Systemic mBP [39]: 62.67 | HR [40]: 58 | Systemic DBP [40]: 54 | Systemic SBP [40]: 107 | Systemic mBP [40]: 71.68 | HR (Patient 6, nitrite 45, 15 min): 95 | Systemic DBP (Patient 6, nitrite 45, 15 min): 58 | Systemic SBP (Patient 6, nitrite 45, 15 min): 110 | Systemic mBP (Patient 6, nitrite 45, 15 min): 75.3426 | HR (Patient 6, nitrite 45, 30 min): 99 | Systemic DBP (Patient 6, nitrite 45, 30 min): 65 | Systemic SBP (Patient 6, nitrite 45, 30 min): 127 | Systemic mBP (Patient 6, nitrite 45, 30 min): 85.6773 | HR (Patient 6, nitrite 45, 45 min): 96 | Systemic DBP (Patient 6, nitrite 45, 45 min): 66 | Systemic SBP (Patient 6, nitrite 45, 45 min): 126 | Systemic mBP (Patient 6, nitrite 45, 45 min): 86.0106 | HR (Patient 6, nitrite 45, 60 min): 97 | Systemic DBP (Patient 6, nitrite 45, 60 min): 65 | Systemic SBP (Patient 6, nitrite 45, 60 min): 128 | Systemic mBP (Patient 6, nitrite 45, 60 min): 86.0107 | HR (Patient 6, nitrite 90, 15 min): 93 | Systemic DBP (Patient 6, nitrite 90, 15 min): 59 | Systemic SBP (Patient 6, nitrite 90, 15 min): 112 | Systemic mBP (Patient 6, nitrite 90, 15 min): 76.6761 | HR (Patient 6, nitrite 90, 30 min): 95 | Systemic DBP (Patient 6, nitrite 90, 30 min): 66 | Systemic SBP (Patient 6, nitrite 90, 30 min): 110 | Systemic mBP (Patient 6, nitrite 90, 30 min): 80.6762 | HR (Patient 6, nitrite 90, 45 min): 90 | Systemic DBP (Patient 6, nitrite 90, 45 min): 60 | Systemic SBP (Patient 6, nitrite 90, 45 min): 114 | Systemic mBP (Patient 6, nitrite 90, 45 min): 78.0096 | HR (Patient 6, nitrite 90, 60 min): 91 | Systemic DBP (Patient 6, nitrite 90, 60 min): 58 | Systemic SBP (Patient 6, nitrite 90, 60 min): 111 | Systemic mBP (Patient 6, nitrite 90, 60 min): 75.676 | heart rate [41]: does not significantly affect | systemic blood pressure [41]: does not significantly affect
